The numbers were not newly measured in publication PMC10651166 (Journal of acquired immune deficiency syndromes (1999), 2023), which cites them from elsewhere.

Converted amounts (≈) assume the structure as drawn.

For the data set, the system named is wild-type virus (HIV). The settings on record: protein-adjusted.

In the case of `CC(C)CN(C[C@@H](O)[C@H](Cc1ccccc1)NC(=O)O[C@H]1CO[C@H]2OCC[C@H]21)S(=O)(=O)c1ccc(N)cc1` [Darunavir], the EC50 was 0.055 µg/mL (≈ 0.1 µM).

What is called EC50 is the concentration needed to bring the measured effect to its halfway point.
